Where no end group is shown, it is not given here.

Assay in all cases: biochemical
Holding throughout (assay type): binding

One test concerns the target T1, DRB1*0101 (Homo sapiens, UniProt P01903+P01911, A100R/D57E/F55L/F60I/F76Y/I96L/L162R/M171V/P40L/Q125E/R42F/V115G/Y59C).
T1 construct: made in house; host or cells: EBV-transformed homozygous human B cell lines, transfected fibroblasts or single-allele 721.221 transfectants
To be noted: IC50 nM to purified HLA DRB1*0101.

The target in a further test is T2, DRB1*1501 (Homo sapiens, UniProt P01903+P01911).
T2 construct: made in house; host or cells: EBV-transformed homozygous human B cell lines, transfected fibroblasts or single-allele 721.221 transfectants
To be noted: read-out: IC50 nM to purified HLA DRB1*1501.

The target in another test is T3, DRB1*0401 (Homo sapiens, UniProt P01903+P01911, A100K/A169T/F76Y/I96L/K127E/L162R/M171V/N62H/P40V/Q125Y/R42H/S133A/S149N/S66Y/V115G/V209L/W38E).
T3 construct: made in house; host or cells: EBV-transformed homozygous human B cell lines, transfected fibroblasts or single-allele 721.221 transfectants
To be noted: read-out: IC50 nM to purified HLA DRB1*0401.

The next test addresses DRB1*1302 (Homo sapiens, UniProt P01903+P01911, A100E/A169T/K41T/L162R/M171V/P40S/Q125H/Q178H/Q39Y/Q99D/R42S/S66N/T262R/V115G/W38E/Y61H). The note with it: read-out: IC50 nM to purified HLA DRB1*1302.
Another test concerns the target T4, DRB1*0301 (Homo sapiens, UniProt P01903+P01911, A100K/A102G/A103R/A169T/F55Y/I96L/K41T/L162R/M171V/P40S/Q125H/Q178H/Q39Y/R42S/S66N/T106N/T262R/W38E/Y61H).
T4 construct: made in house; host or cells: EBV-transformed homozygous human B cell lines, transfected fibroblasts or single-allele 721.221 transfectants

Chain of DRB1*1302 (P01903 26-254 limits assumed, other chains not shown): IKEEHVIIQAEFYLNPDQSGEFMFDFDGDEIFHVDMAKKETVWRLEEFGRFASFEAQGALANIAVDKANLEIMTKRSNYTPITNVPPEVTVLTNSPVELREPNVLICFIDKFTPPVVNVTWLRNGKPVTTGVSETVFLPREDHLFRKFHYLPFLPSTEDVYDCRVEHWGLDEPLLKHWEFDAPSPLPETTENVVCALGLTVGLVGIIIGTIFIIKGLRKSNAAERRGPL
T4 sequence (P01903 26-254, other chains not shown): as the sequence (P01903 26-254 limits assumed, other chains not shown) above

In general, IC50 refers to the concentration that inhibits the measured activity by half. On to `CC[C@H](C)[C@H](NC(=O)[C@H](CC(C)C)NC(=O)[C@H](Cc1c[nH]c2ccccc12)NC(=O)[C@@H](NC(=O)[C@@H](NC(=O)[C@H](CC(N)=O)NC(=O)[C@H](CCCNC(=N)N)NC(=O)[C@H](Cc1ccccc1)NC(=O)[C@H](Cc1ccccc1)NC(=O)[C@H](CO)NC(=O)[C@H](CO)NC(=O)[C@@H](N)CCCCN)C(C)C)C(C)C)C(=O)N[C@@H](CCCCN)C(=O)N[C@@H](CCCCN)C(=O)N[C@@H](CC(N)=O)C(=O)O` [Flu.HA.156], for which the IC50 worked out at 46 nM on DRB1*0101, 832 nM on DRB1*1501, 474 nM at DRB1*0401 and 20 nM on DRB1*1302.
Regarding `CC[C@H](C)[C@H](NC(=O)[C@H](Cc1ccc(O)cc1)NC(=O)[C@@H](NC(=O)[C@@H](NC(=O)[C@@H]1CCCN1C(=O)[C@H](CC(N)=O)NC(=O)[C@H](CCC(N)=O)NC(=O)[C@H](Cc1ccc(O)cc1)NC(=O)[C@H](CC(C)C)NC(=O)[C@H](CCCCN)NC(=O)[C@@H](NC(=O)[C@@H](N)CCC(N)=O)[C@@H](C)O)[C@@H](C)O)[C@@H](C)O)C(=O)N[C@@H](CO)C(=O)N[C@H](C(=O)NCC(=O)N[C@H](C(=O)O)[C@@H](C)O)C(C)C` [Flu.HA.203], the IC50 on DRB1*1501 is 60 nM; on DRB1*1302 it was 18 nM.
At DRB1*0301, `CSCC[C@H](NC(=O)[C@H](CC(C)C)NC(=O)[C@@H](NC(=O)[C@H](CC(C)C)NC(=O)[C@@H](N)CC(C)C)C(C)C)C(=O)N[C@@H](CCC(=O)O)C(=O)N[C@@H](CC(N)=O)C(=O)N[C@@H](CCC(=O)O)C(=O)N[C@@H](CCCNC(=N)N)C(=O)N[C@H](C(=O)N[C@@H](CC(C)C)C(=O)N[C@@H](CC(=O)O)C(=O)N[C@@H](Cc1ccccc1)C(=O)N[C@@H](Cc1c[nH]cn1)C(=O)N[C@@H](CC(=O)O)C(=O)O)[C@@H](C)O` [Flu.HA.444] returned an IC50 of 64 nM.
Consider `CC[C@H](C)[C@H](NC(=O)[C@H](CC(C)C)NC(=O)[C@H](CC(=O)O)NC(=O)[C@H](CC(=O)O)NC(=O)[C@H](CCCCN)NC(=O)[C@H](CC(C)C)NC(=O)CNC(=O)[C@H](C)NC(=O)[C@@H](N)CO)C(=O)N[C@@H](CCC(=O)O)C(=O)N[C@@H](CC(N)=O)C(=O)N[C@@H](CC(C)C)C(=O)N[C@@H](CCC(N)=O)C(=O)N[C@@H](C)C(=O)N[C@@H](Cc1ccc(O)cc1)C(=O)O` [Flu.M1.229], for which 64 nM corresponded to half-maximal inhibition at DRB1*0301 (IC50).
For `CC[C@H](C)[C@H](N)C(=O)NCC(=O)N[C@@H](CC(N)=O)C(=O)N[C@@H](CCSC)C(=O)N[C@H](C(=O)N[C@@H](CO)C(=O)N[C@H](C(=O)N[C@@H](Cc1c[nH]c2ccccc12)C(=O)N[C@H](C(=O)N[C@@H](CO)C(=O)N[C@@H](Cc1c[nH]cn1)C(=O)N[C@@H](CO)C(=O)N[C@H](C(=O)N[C@@H](Cc1c[nH]cn1)C(=O)N[C@H](C(=O)NCC(=O)O)[C@@H](C)O)[C@@H](C)CC)C(C)C)[C@@H](C)CC)[C@@H](C)CC` [Flu.NA.26], the values for the IC50 against DRB1*0101, on DRB1*1501 and on DRB1*1302 were 1050 nM, 81 nM and 5950 nM, respectively.
Consider `CC(C)C[C@H](NC(=O)[C@H](C)NC(=O)CNC(=O)[C@H](CCC(N)=O)NC(=O)[C@@H](NC(=O)[C@H](CC(C)C)NC(=O)[C@H](Cc1ccccc1)NC(=O)[C@H](Cc1ccccc1)NC(=O)[C@@H](NC(=O)[C@@H](N)CCCNC(=N)N)[C@@H](C)O)[C@@H](C)O)C(=O)N[C@@H](CC(C)C)C(=O)N[C@@H](CC(N)=O)C(=O)N[C@@H](CC(=O)O)C(=O)N[C@@H](CCCCN)C(=O)N[C@@H](Cc1c[nH]cn1)C(=O)N[C@@H](CO)C(=O)O` [Flu.NA.110], for which the IC50 is 16 nM at DRB1*0101, 790 nM at DRB1*1501, 251 nM on DRB1*0401 and 3210 nM at DRB1*1302.
Take `CC[C@H](C)[C@H](NC(=O)CNC(=O)[C@H](CC(N)=O)NC(=O)[C@H](Cc1ccc(O)cc1)NC(=O)[C@H](CCCCN)NC(=O)[C@H](CC(C)C)NC(=O)[C@@H](NC(=O)[C@H](C)NC(=O)[C@@H](N)C(C)C)C(C)C)C(=O)N[C@H](C(=O)N[C@H](C(=O)N[C@@H](CC(=O)O)C(=O)N[C@H](C(=O)N[C@H](C(=O)N[C@@H](CCCCN)C(=O)N[C@@H](CO)C(=O)N[C@@H](Cc1c[nH]c2ccccc12)C(=O)O)[C@@H](C)CC)[C@@H](C)O)[C@@H](C)O)[C@@H](C)CC` [Flu.NA.183]: the results for the IC50 against DRB1*0101, on DRB1*1501 and on DRB1*0401 were 3390 nM, 19 nM and 319 nM, respectively.
Consider `CC[C@H](C)[C@H](NC(=O)[C@H](CC(N)=O)NC(=O)[C@H](CC(N)=O)NC(=O)[C@H](CCCNC(=N)N)NC(=O)[C@H](Cc1c[nH]c2ccccc12)NC(=O)[C@H](CO)NC(=O)[C@H](CCCCN)NC(=O)[C@@H](NC(=O)[C@@H](NC(=O)[C@H](CC(=O)O)NC(=O)[C@@H](NC(=O)[C@@H](NC(=O)[C@@H](NC(=O)CNC(=O)[C@H](CC(N)=O)NC(=O)[C@@H](N)Cc1ccc(O)cc1)[C@@H](C)CC)[C@@H](C)CC)[C@@H](C)O)[C@@H](C)O)[C@@H](C)CC)C(=O)O` [Flu.NA.188], for which the IC50 on DRB1*1501 was 31 nM; at DRB1*1302 it was 370 nM.
In the case of `CC(C)C[C@H](NC(=O)[C@H](CCC(=O)O)NC(=O)[C@@H](NC(=O)[C@H](CO)NC(=O)[C@H](CCCCN)NC(=O)[C@@H](N)C(C)C)C(C)C)C(=O)N[C@@H](CC(=O)O)C(=O)N[C@@H](C)C(=O)N1CCC[C@H]1C(=O)N[C@@H](CC(N)=O)C(=O)N[C@@H](Cc1ccc(O)cc1)C(=O)N[C@@H](Cc1c[nH]cn1)C(=O)N[C@@H](Cc1ccc(O)cc1)C(=O)N[C@@H](CCC(=O)O)C(=O)N[C@@H](CCC(=O)O)C(=O)O` [Flu.NA.244], the figures for the IC50 on DRB1*0301 and at DRB1*1302 were 65 nM and 197 nM, respectively.
For the compound `CC(C)C[C@H](NC(=O)[C@H](CO)NC(=O)[C@H](CCCCN)NC(=O)[C@H](CCC(N)=O)NC(=O)[C@H](CC(=O)O)NC(=O)[C@H](CCCNC(=N)N)NC(=O)[C@H](CCCNC(=N)N)NC(=O)[C@H](CC(C)C)NC(=O)[C@H](CCCNC(=N)N)NC(=O)[C@H](CC(=O)O)NC(=O)[C@@H](N)CC(C)C)C(=O)N[C@@H](CCCNC(=N)N)C(=O)NCC(=O)N[C@@H](CCCNC(=N)N)C(=O)NCC(=O)O` [Flu.NS1.36], the IC50 turned out to be 83 nM on DRB1*0301 and 800 nM on DRB1*0101.
For `CC[C@H](C)[C@H](NC(=O)[C@H](CCCNC(=N)N)NC(=O)[C@H](CCC(=O)O)NC(=O)[C@@H](N)C(C)C)C(=O)N[C@@H](CC(C)C)C(=O)N[C@@H](CCCCN)C(=O)N[C@@H](CCC(=O)O)C(=O)N[C@@H](CCC(=O)O)C(=O)N[C@@H](CO)C(=O)N[C@@H](CC(=O)O)C(=O)N[C@@H](CCC(=O)O)C(=O)N[C@@H](C)C(=O)N[C@@H](CC(C)C)C(=O)N[C@@H](CCCCN)C(=O)N[C@@H](CCSC)C(=O)O` [Flu.NS1.68], the IC50 is 1050 nM against DRB1*0301, 5190 nM against DRB1*0101, 679 nM at DRB1*0401 and 5060 nM on DRB1*1302.
Consider `CC[C@H](C)[C@H](NC(=O)[C@H](CC(C)C)NC(=O)[C@H](CCSC)NC(=O)[C@H](CC(C)C)NC(=O)[C@H](Cc1c[nH]c2ccccc12)NC(=O)[C@H](CC(=O)O)NC(=O)[C@H](CCCNC(=N)N)NC(=O)[C@H](CO)NC(=O)[C@H](CCSC)NC(=O)[C@H](CCC(=O)O)NC(=O)[C@H](CCC(=O)O)NC(=O)[C@@H](N)CC(C)C)C(=O)N1CCC[C@H]1C(=O)N[C@@H](CCCCN)C(=O)N[C@@H](CCC(N)=O)C(=O)O` [Flu.NS1.98], for which the IC50 at DRB1*0301 amounted to 170 nM.
Same read-out and setting: to `CC[C@H](C)[C@H](NC(=O)[C@@H](N)CC(C)C)C(=O)N[C@@H](CC(=O)O)C(=O)N[C@@H](Cc1ccccc1)C(=O)N[C@@H](CC(C)C)C(=O)N[C@@H](CCCCN)C(=O)N[C@@H](CC(=O)O)C(=O)N[C@H](C(=O)N[C@@H](CCSC)C(=O)N[C@@H](CCC(=O)O)C(=O)N[C@@H](CO)C(=O)N[C@@H](CCSC)C(=O)N[C@@H](CC(=O)O)C(=O)N[C@@H](CCCCN)C(=O)N[C@@H](CCC(=O)O)C(=O)O)C(C)C` [Flu.PB1.166] belongs 120 nM.
Turning to `CSCC[C@H](NC(=O)[C@H](CCCCN)NC(=O)[C@H](CO)NC(=O)[C@@H](N)C(C)C)C(=O)NCC(=O)N[C@H](C(=O)N[C@@H](CC(=O)O)C(=O)N[C@@H](CCC(=O)O)C(=O)N[C@@H](Cc1ccc(O)cc1)C(=O)N[C@@H](CO)C(=O)N[C@@H](CO)C(=O)N[C@H](C(=O)N[C@@H](CCC(=O)O)C(=O)N[C@@H](CCCNC(=N)N)C(=O)N[C@H](C(=O)O)C(C)C)[C@@H](C)O)C(C)C` [Flu.PB2.483], the IC50 on DRB1*0301 amounted to 1020 nM; at DRB1*1302, 1850 nM.
In turn, `CC[C@H](C)[C@H](NC(=O)[C@H](CCCNC(=N)N)NC(=O)[C@H](CCCCN)NC(=O)[C@@H](NC(=O)[C@H](C)NC(=O)[C@@H](NC(=O)[C@H](CCC(N)=O)NC(=O)[C@H](CO)NC(=O)[C@H](CC(=O)O)NC(=O)[C@@H](NC(=O)[C@H](CC(C)C)NC(=O)[C@@H](NC(=O)[C@H](CO)NC(=O)[C@H](CO)NC(=O)[C@@H](N)CC(=O)O)[C@@H](C)CC)[C@@H](C)O)[C@@H](C)O)[C@@H](C)O)C(=O)O` [Flu.PB2.743] showed an IC50 against DRB1*0301 of 36 nM.
On the same count and under the same terms, next, CEQIADSQHRSHRQM [Flu.M1.154]: 804 nM.
For MEWLKTRPILSPLTK [Flu.M1.46], the IC50 was 52 nM at DRB1*0101, 111 nM on DRB1*1501, 528 nM on DRB1*0401 and 3870 nM at DRB1*1302.
For TRPILSPLTKGILGF [Flu.M1.51], the IC50 against DRB1*0101 is 423 nM; at DRB1*1501 it was 140 nM; at DRB1*1302 it was 292 nM.
